Measurements reported in ChEMBL document CHEMBL1129077 (J Med Chem, 1996).

What was measured:
[1] = molecular target: T1, Transient receptor potential cation channel subfamily V member 1 (Rattus norvegicus, UniProt O35433); experiment: Displacement of [3H]RTX from Vanilloid receptor in Rat spinal cord membranes; assay type: cell membranes, Membrane
[2] = molecular target: T2, Transient receptor potential cation channel subfamily V member 1 (Homo sapiens, UniProt Q8NER1); experiment: Effect on cooperativity of Resiniferatoxin (RTX) binding (Hill coefficient); assay type: functional
T2 sequence (Q8NER1 whole entry): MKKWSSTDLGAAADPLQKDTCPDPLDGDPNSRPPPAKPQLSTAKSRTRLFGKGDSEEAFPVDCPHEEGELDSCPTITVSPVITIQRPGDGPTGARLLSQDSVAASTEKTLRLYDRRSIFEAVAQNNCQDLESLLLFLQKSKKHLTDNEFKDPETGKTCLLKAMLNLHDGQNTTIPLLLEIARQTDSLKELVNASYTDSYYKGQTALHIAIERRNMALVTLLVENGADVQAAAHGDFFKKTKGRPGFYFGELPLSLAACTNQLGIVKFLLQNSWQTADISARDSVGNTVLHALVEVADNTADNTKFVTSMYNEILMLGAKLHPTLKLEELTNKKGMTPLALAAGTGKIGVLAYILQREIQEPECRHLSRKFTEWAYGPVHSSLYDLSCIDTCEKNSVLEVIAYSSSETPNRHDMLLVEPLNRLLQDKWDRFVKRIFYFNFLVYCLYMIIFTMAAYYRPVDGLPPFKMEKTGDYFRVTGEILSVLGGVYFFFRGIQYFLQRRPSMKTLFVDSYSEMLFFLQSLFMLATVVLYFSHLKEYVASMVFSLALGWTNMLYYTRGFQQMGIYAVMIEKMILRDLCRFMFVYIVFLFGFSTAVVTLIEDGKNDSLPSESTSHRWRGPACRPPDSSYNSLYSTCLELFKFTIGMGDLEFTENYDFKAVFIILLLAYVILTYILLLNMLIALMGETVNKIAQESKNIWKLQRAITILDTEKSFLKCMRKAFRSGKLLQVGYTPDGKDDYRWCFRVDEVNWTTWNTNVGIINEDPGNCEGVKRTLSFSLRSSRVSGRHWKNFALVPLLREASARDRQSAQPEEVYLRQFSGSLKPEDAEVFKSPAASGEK

[3] = The effect on the Cooperativity of Resiniferatoxin binding, as Quantitated by the Hill Coefficients.
[4] = molecular target: T1, Transient receptor potential cation channel subfamily V member 1; experiment: Displacement of [3H]RTX binding from Vanilloid receptor of rat dorsal Root Ganglion (DRG) membranes; assay type: cell membranes, Membrane
[5] = molecular target: T2, Transient receptor potential cation channel subfamily V member 1; experiment: Inhibition of [3H]- RTX binding to Vanilloid receptors from human spinal cord
Rattus norvegicus = experiment: Desensitisation against RTX-induced ear edema formation 24 hr r post-administration; assay type: functional
[6] = molecular target: T2, Transient receptor potential cation channel subfamily V member 1; experiment: Inhibitory constant for RTX binding to human spinal cord; assay type: functional, tissue-based
[7] = molecular target: T1, Transient receptor potential cation channel subfamily V member 1; experiment: Inhibitory constant for RTX binding to rat spinal cord; assay type: functional
[8] = molecular target: T1, Transient receptor potential cation channel subfamily V member 1; experiment: Inhibition of [3H]- RTX binding to vanilloid receptor of rat urinary bladder; assay type: functional

T1 sequence (O35433 whole entry): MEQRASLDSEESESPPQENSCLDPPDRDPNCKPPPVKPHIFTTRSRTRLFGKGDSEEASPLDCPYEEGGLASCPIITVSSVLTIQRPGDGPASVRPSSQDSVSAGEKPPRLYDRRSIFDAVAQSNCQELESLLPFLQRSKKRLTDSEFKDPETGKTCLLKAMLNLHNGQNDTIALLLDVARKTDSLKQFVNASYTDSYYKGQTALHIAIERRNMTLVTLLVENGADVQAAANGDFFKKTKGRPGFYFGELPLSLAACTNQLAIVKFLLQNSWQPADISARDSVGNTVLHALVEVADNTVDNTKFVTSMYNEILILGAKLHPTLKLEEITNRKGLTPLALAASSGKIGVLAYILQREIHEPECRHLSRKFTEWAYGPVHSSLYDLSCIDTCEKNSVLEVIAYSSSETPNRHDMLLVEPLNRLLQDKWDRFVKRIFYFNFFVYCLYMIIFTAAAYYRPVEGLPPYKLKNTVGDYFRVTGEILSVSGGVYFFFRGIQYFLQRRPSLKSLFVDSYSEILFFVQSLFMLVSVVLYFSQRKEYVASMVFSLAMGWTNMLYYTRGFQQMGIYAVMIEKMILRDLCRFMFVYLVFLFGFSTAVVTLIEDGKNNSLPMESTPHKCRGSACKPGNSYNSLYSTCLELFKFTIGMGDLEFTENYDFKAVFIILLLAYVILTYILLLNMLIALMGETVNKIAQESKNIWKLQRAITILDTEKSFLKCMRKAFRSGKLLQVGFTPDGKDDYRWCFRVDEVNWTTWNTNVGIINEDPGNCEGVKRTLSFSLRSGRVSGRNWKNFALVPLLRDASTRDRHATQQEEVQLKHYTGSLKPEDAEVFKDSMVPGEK

## COc1cc(CC(=O)OCC2=C[C@H]3[C@@H]4C(C)(C)[C@]4(OC(C)=O)[C@H](OC(=O)c4ccc(N=[N+]=[N-])cc4)[C@@H](C)[C@]3(O)[C@@H]3C=C(C)C(=O)[C@@]3(O)C2)ccc1O
[1]
  Ki: 200 nM
[2]
  Hill coefficient: 1.5

## COc1cc(CC(=O)OCC2=C[C@H]3[C@@H]4C(C)(C)[C@]4(OC(C)=O)C(=O)[C@@H](C)[C@]3(O)[C@@H]3C=C(C)C(=O)[C@@]3(O)C2)ccc1O
[1]
  Ki: > 10000 nM

## C=C(C)[C@]12C[C@@H](C)[C@@]34O[C@](Cc5ccccc5)(O[C@@H]1[C@@H]3C=C(COC(=O)Cc1ccc(O)c(OC)c1)C[C@]1(O)C(=O)C(C)=CC41)O2 (single isomer, unassigned) [RESINIFERATOXIN]
[1]
  Ki: 0.02 nM
[3]
  Hill coefficient: 2.3

## COc1cc(CNC(=O)CCCC/C=C/C(C)C)ccc1O
[2]
  Hill coefficient: 2

## COc1cc(CC(=O)OCC2=C[C@H]3[C@@H]4C(C)(C)[C@]4(OC(C)=O)[C@H](OC(=O)c4ccccc4)[C@@H](C)[C@]3(O)[C@@H]3C=C(C)C(=O)[C@@]3(O)C2)ccc1O
[1]
  Ki: 400 nM
[2]
  Hill coefficient: 1.7

## COc1cc(CC(=O)OCC2=C[C@H]3[C@@H]4C(C)(C)[C@]4(OC(=O)Cc4ccccc4)[C@H](OC(=O)Cc4ccccc4)[C@@H](C)[C@]3(O)[C@@H]3C=C(C)C(=O)[C@@]3(O)C2)ccc1O
[1]
  Ki: 300 nM
[2]
  Hill coefficient: 1.3

## Oc1cc2c(cc1O)CN(C(=S)NCCc1ccc(Cl)cc1)CCC2 [CAPSAZEPINE]
[1]
  Ki: 1200 nM
[2]
  Hill coefficient: 2.4

## COc1cc(CC(=O)OCC2=C[C@H]3[C@@H]4C(C)(C)[C@]4(OC(C)=O)[C@H](OC(=O)Cc4ccc(N=[N+]=[N-])cc4)[C@@H](C)[C@]3(O)[C@@H]3C=C(C)C(=O)[C@@]3(O)C2)ccc1O
[1]
  Ki: 200 nM
[2]
  Hill coefficient: 1.4

## COc1cc(CC(=O)OCC2=C[C@H]3[C@@H]4C(C)(C)[C@]4(OC(C)=O)[C@H](OC(=O)CC4CCCCC4)[C@@H](C)[C@]3(O)[C@@H]3C=C(C)C(=O)[C@@]3(O)C2)ccc1O
[1]
  Ki: 400 nM
[2]
  Hill coefficient: 1.1

## COc1cc(CC(=O)OCC2=C[C@H]3[C@@H]4C(C)(C)[C@]4(OC(C)=O)[C@H](OC(=O)Cc4ccccc4)[C@@H](C)[C@]3(O)[C@@H]3C=C(C)[C@H](O)[C@@]3(O)C2)ccc1O
[1]
  Ki: > 10000 nM

## COc1cc(CC(=O)OCC2=C[C@H]3[C@@H]4C(C)(C)[C@]4(OC(C)=O)[C@H](OC(=O)Cc4ccccc4)[C@@H](C)[C@]3(O)[C@@H]3C=C(C)C(=O)[C@@]3(O)C2)ccc1OC(C)=O
[1]
  Ki: 1700 nM
[2]
  Hill coefficient: 1

## COc1cc(CC(=O)OCC2=C[C@H]3[C@@H]4C(C)(C)[C@]4(OC(C)=O)[C@H](OC(=O)Cc4ccccc4)[C@@H](C)[C@]3(O)[C@@H]3C=C(C)C(=O)[C@@]3(O)C2)ccc1O
[4]
  Ki: 600 nM
[5]
  Ki: 6400 nM
[2]
  Hill coefficient: 1.1
Rattus norvegicus
  ED50: 10 mg/kg
[6]
  Ki: 0.45 nM
[7]
  Ki: 0.054 nM
[8]
  Ki: 2000 nM

## COc1cc(CC(=O)OCC2=C[C@H]3[C@@H]4C(C)(C)[C@]4(OC(C)=O)[C@H](OC(=O)C4CCCCC4)[C@@H](C)[C@]3(O)[C@@H]3C=C(C)C(=O)[C@@]3(O)C2)ccc1O
[1]
  Ki: 2200 nM
[2]
  Hill coefficient: 1

## COc1cc(CC(=O)OCC2=C[C@H]3[C@@H]4C(C)(C)[C@]4(OC(=O)Cc4ccccc4)C(=O)[C@@H](C)[C@]3(O)[C@@H]3C=C(C)C(=O)[C@@]3(O)C2)ccc1O
[1]
  Ki: 1300 nM
[2]
  Hill coefficient: 0.9
